Tests used:
α1β3γ2L GABAA receptors [1] = target: T1, α1β3γ2L GABAA receptors (Homo sapiens, UniProt P14867+P18507+P28472); assay type: cell-based
zebrafish larvae = test: Zebrafish larvae photomotor response; assay type: in vivo, Danio rerio; conditions: for EC50: Danio rerio, read-out: EC50 for abolishing zebrafish larvae motor responses to a light stimulus
GABAA receptor = conditions: cited from earlier work
α1β3γ2L GABAA receptors [2] = target: T1, α1β3γ2L GABAA receptors; assay type: cell-based; remark: listed apart in the source
α1β3γ2L GABAA receptors [3] = target: T1, α1β3γ2L GABAA receptors; assay type: cell-based; conditions: for IC50: IC50 for antagonizing direct activation by 20 μM etomidate in the presence of flumazenil, [Benzodiazepine]:[Flumazenil] = 1:2
[4] = target: purified α1β3γ2L GABAA receptors (Homo sapiens, UniProt P14867+P18507+P28472); test: Inhibition of R-[3H]azietomidate photoaffinity labeling of purified receptors; conditions: at up to 300 μM
Chain of purified α1β3γ2L GABAA receptors (P14867 28-456): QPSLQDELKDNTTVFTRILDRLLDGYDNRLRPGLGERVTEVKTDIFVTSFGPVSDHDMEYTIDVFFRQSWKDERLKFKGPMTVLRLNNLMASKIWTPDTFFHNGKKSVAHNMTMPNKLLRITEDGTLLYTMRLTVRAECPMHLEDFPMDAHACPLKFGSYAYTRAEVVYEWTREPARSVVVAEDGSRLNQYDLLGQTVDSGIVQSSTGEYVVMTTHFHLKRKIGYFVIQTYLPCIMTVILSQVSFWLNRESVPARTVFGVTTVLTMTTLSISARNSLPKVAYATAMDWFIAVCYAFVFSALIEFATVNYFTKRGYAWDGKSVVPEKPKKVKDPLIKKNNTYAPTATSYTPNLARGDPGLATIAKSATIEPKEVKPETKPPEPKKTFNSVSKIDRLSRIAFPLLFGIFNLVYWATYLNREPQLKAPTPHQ
Chain of purified α1β3γ2L GABAA receptors (P28472 26-473): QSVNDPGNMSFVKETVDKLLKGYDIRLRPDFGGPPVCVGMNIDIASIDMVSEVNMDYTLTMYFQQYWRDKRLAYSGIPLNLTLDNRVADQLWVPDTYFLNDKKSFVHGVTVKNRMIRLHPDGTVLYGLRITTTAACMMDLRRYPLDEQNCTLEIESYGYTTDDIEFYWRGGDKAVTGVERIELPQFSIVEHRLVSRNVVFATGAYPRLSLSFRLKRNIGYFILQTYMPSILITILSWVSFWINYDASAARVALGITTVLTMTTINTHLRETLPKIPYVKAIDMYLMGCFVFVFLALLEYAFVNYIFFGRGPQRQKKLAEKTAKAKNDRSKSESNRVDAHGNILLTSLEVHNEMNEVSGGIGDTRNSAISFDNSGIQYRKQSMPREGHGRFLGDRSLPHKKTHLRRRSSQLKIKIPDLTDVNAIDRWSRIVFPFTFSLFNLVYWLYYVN
Chain of purified α1β3γ2L GABAA receptors (P18507 40-475): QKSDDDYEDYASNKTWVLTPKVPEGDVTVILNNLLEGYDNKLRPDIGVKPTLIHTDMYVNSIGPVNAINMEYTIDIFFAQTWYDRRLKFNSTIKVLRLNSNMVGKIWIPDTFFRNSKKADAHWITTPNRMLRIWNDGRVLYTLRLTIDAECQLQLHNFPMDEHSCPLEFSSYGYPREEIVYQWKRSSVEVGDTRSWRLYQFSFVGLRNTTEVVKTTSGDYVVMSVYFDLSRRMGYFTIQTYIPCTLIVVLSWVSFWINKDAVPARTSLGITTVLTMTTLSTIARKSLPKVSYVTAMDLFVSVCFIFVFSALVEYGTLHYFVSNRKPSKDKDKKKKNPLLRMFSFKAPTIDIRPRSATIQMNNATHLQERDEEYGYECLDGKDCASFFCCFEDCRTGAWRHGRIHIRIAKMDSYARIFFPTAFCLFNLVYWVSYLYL

purified GABAA receptors = conditions: cited from earlier work

T1 sequence (P14867 28-456): as the sequence (P14867 28-456) above
T1 sequence (P28472 26-473): as the sequence (P28472 26-473) above
T1 sequence (P18507 40-475): as the sequence (P18507 40-475) above

## CN1C(=O)CN=C(c2ccccc2)c2cc(Cl)ccc21 [Diazepam]
α1β3γ2L GABAA receptors [1]; 6 μM GABA
  reduction of GABA-activated peak current amplitudes at micromolar concentrations: did not see a similar reduction
Zebrafish larvae; 50 μM, alone, no flumazenil
  effect on zebrafish larvae motor responses to light stimulus: essentially abolishes
GABAA receptor
  potentiation of currents activated by low concentrations of GABA via the etomidate binding site: no more than two- to threefold
α1β3γ2L GABAA receptors [2]; against etomidate direct activation, flumazenil present (1:4)
  Schild slope: 1.1

## Clc1ccc2c(c1)C(c1ccccc1)=NCc1nncn1-2 [Estazolam]
α1β3γ2L GABAA receptors [3]
  IC50: 59 µM

## CN1C(=O)CN=C(c2ccccc2F)c2cc(Cl)ccc21 [Fludiazepam]
α1β3γ2L GABAA receptors [3]
  IC50: 390 µM
α1β3γ2L GABAA receptors [3]; relative to diazepam
  etomidate inhibitory potency, fold lower than diazepam: 30 ×

## CCOC(=O)c1ncn2c1CN(C)C(=O)c1cc(F)ccc1-2 [Flumazenil]
α1β3γ2L GABAA receptors [1]; data not shown
  impact on GABA-activated currents in the absence of diazepam: no impact
[4]
  effect on R-[3H]azietomidate photo-incorporation: little inhibitory effect
α1β3γ2L GABAA receptors [3]; data not shown
  impact on etomidate-activated currents in the absence of diazepam: no impact

## O=C1Nc2ccc(Cl)cc2C(c2ccccc2Cl)=NC1O (stereo not drawn) [Lorazepam]
α1β3γ2L GABAA receptors [3]
  IC50: ≥ 1000 µM

## CN1CCN=C(c2ccccc2)c2cc(Cl)ccc21 [Medazepam]
α1β3γ2L GABAA receptors [3]
  IC50: ≥ 1000 µM

## Cc1ncc2n1-c1ccc(Cl)cc1C(c1ccccc1F)=NC2 [Midazolam]
α1β3γ2L GABAA receptors [3]
  IC50: 560 µM

## O=C1CN=C(c2ccccc2)c2cc([N+](=O)[O-])ccc2N1 [Nitrazepam]
α1β3γ2L GABAA receptors [3]
  IC50: 130 µM

## O=C1CN=C(c2ccccc2)c2cc(Cl)ccc2N1 [Nordiazepam]
α1β3γ2L GABAA receptors [3]
  IC50: 32 µM

## CCOC(=O)c1cncn1[C@H](C)c1ccccc1 [etomidate]
Zebrafish larvae
  EC50: 0.66 µM
GABAA receptor; high concentrations
  potentiation of currents activated by low concentrations of GABA: more than an order of magnitude
α1β3γ2L GABAA receptors [2]; Schild analysis
  Hill slope of etomidate concentration-response curve: 2.1

## CN1C(=O)CN=C(c2ccccc2F)c2cc([N+](=O)[O-])ccc21 [flunitrazepam]
Purified GABAA receptors
  reduction in apparent affinity with purified GABAA receptors: sevenfold

## CNC1(c2ccccc2Cl)CCCCC1=O (stereo not drawn) [ketamine]
Zebrafish larvae
  EC50: 170 µM
Zebrafish larvae; by 50 μM diazepam plus 200 μM flumazenil
  fold leftward shift of anesthetic concentration-response curve: 19 fold

Reference: article PMC7944240 (Anesthesiology, 2020)
